Results as given in PubChem BioAssay (NCI).
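Growth conditions: 96-well plates. Treatment: test compound, 48 hours, 5 concentrations. Analysis: linear interpolation between bracketing concentrations; unreached endpoints set to highest concentration. At the GI50, growth is halved. The concentration for full growth arrest is given as TGI.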

Key:
Test in all cases: NCI tumour cell line growth inhibition, 48 h
786-0 renal = test system: 786-0 renal
A498 renal = test system: A498 renal
ACHN renal = test system: ACHN renal
BT-549 breast = test system: BT-549 breast
CAKI-1 renal = test system: CAKI-1 renal
CCRF-CEM leukemia = test system: CCRF-CEM leukemia
COLO 205 colon = test system: COLO 205 colon
DU-145 prostate = test system: DU-145 prostate
EKVX NSCLC = test system: EKVX NSCLC
HCC-2998 colon = test system: HCC-2998 colon
HCT-116 colon = test system: HCT-116 colon
HCT-15 colon = test system: HCT-15 colon
HL-60(TB) leukemia = test system: HL-60(TB) leukemia
HOP-62 NSCLC = test system: HOP-62 NSCLC
HOP-92 NSCLC = test system: HOP-92 NSCLC
HS 578T breast = test system: HS 578T breast
HT29 colon = test system: HT29 colon
IGROV1 ovarian = test system: IGROV1 ovarian
K-562 leukemia = test system: K-562 leukemia
LOX IMVI melanoma = test system: LOX IMVI melanoma
M14 melanoma = test system: M14 melanoma
MALME-3M melanoma = test system: MALME-3M melanoma
MDA-MB-231 breast = test system: MDA-MB-231 breast
MDA-MB-435 = test system: MDA-MB-435
MOLT-4 leukemia = test system: MOLT-4 leukemia
NCI-H226 lung = test system: NCI-H226 lung
NCI-H23 lung = test system: NCI-H23 lung
NCI/ADR-RES ovarian = test system: NCI/ADR-RES ovarian
OVCAR-3 ovarian = test system: OVCAR-3 ovarian
OVCAR-5 ovarian = test system: OVCAR-5 ovarian
OVCAR-8 ovarian = test system: OVCAR-8 ovarian
PC-3 prostate = test system: PC-3 prostate
RPMI-8226 leukemia = test system: RPMI-8226 leukemia
RXF 393 renal = test system: RXF 393 renal
SF-268 CNS = test system: SF-268 CNS
SF-295 CNS = test system: SF-295 CNS
SF-539 CNS = test system: SF-539 CNS
SK-MEL-2 melanoma = test system: SK-MEL-2 melanoma
SK-MEL-28 melanoma = test system: SK-MEL-28 melanoma
SK-MEL-5 melanoma = test system: SK-MEL-5 melanoma
SK-OV-3 ovarian = test system: SK-OV-3 ovarian
SN12C renal = test system: SN12C renal
SNB-19 CNS = test system: SNB-19 CNS
SNB-75 CNS = test system: SNB-75 CNS
SR leukemia = test system: SR leukemia
SW-620 colon = test system: SW-620 colon
T-47D breast = test system: T-47D breast
TK-10 renal = test system: TK-10 renal
U251 CNS = test system: U251 CNS
UACC-257 melanoma = test system: UACC-257 melanoma
UACC-62 melanoma = test system: UACC-62 melanoma
UO-31 renal = test system: UO-31 renal

Which GI50 (786-0 renal) does the source give for `Nc1nc(-c2cccc([N+](=O)[O-])c2)c(N=Nc2cccc([N+](=O)[O-])c2)s1` here?
Its GI50 is 63 µM.

And the TGI (786-0 renal)?
Its TGI is over 100 µM.

What about the GI50 (A498 renal) of the same compound?
Its GI50 is 33.1 µM.

And the TGI (A498 renal)?
Its TGI is over 100 µM.

And the GI50 (ACHN renal)?
The GI50 was over 100 µM.

And the TGI (ACHN renal)?
Its TGI is over 100 µM.

What about the GI50 (BT-549 breast) of the same compound?
The GI50 was 10.4 µM.

What about the TGI (BT-549 breast) of the same compound?
Its TGI is over 100 µM.

What about the GI50 (CAKI-1 renal) of the same compound?
Its GI50 is over 100 µM.

And the TGI (CAKI-1 renal)?
The TGI was over 100 µM.

And the GI50 (CCRF-CEM leukemia)?
The GI50 was 39.7 µM.

What about the TGI (CCRF-CEM leukemia) of the same compound?
Its TGI is over 100 µM.

What about the GI50 (COLO 205 colon) of the same compound?
The GI50 was over 100 µM.

And the TGI (COLO 205 colon)?
The TGI was over 100 µM.

What about the GI50 (DU-145 prostate) of the same compound?
Its GI50 is over 100 µM.

And the TGI (DU-145 prostate)?
Its TGI is over 100 µM.

What about the GI50 (EKVX NSCLC) of the same compound?
The GI50 was over 78.5 µM.

And the TGI (EKVX NSCLC)?
Its TGI is over 100 µM.

What about the GI50 (HCC-2998 colon) of the same compound?
The GI50 was over 100 µM.

What about the TGI (HCC-2998 colon) of the same compound?
Its TGI is over 100 µM.

And the GI50 (HCT-116 colon)?
The GI50 was over 100 µM.

And the TGI (HCT-116 colon)?
The TGI was over 100 µM.

And the GI50 (HCT-15 colon)?
Its GI50 is over 100 µM.

And the TGI (HCT-15 colon)?
The TGI was over 100 µM.

What about the GI50 (HL-60(TB) leukemia) of the same compound?
Its GI50 is over 52.6 µM.

What about the TGI (HL-60(TB) leukemia) of the same compound?
Its TGI is over 92.8 µM.

And the GI50 (HOP-62 NSCLC)?
The GI50 was 64.9 µM.

And the TGI (HOP-62 NSCLC)?
The TGI was over 100 µM.

And the GI50 (HOP-92 NSCLC)?
Its GI50 is 3.79 µM.

What about the TGI (HOP-92 NSCLC) of the same compound?
The TGI was over 100 µM.

And the GI50 (HS 578T breast)?
The GI50 was over 100 µM.

And the TGI (HS 578T breast)?
Its TGI is over 100 µM.

What about the GI50 (HT29 colon) of the same compound?
The GI50 was over 100 µM.

And the TGI (HT29 colon)?
Its TGI is over 100 µM.

What about the GI50 (IGROV1 ovarian) of the same compound?
The GI50 was over 100 µM.

And the TGI (IGROV1 ovarian)?
Its TGI is over 100 µM.

What about the GI50 (K-562 leukemia) of the same compound?
The GI50 was 1.39 µM.

And the TGI (K-562 leukemia)?
Its TGI is over 65 µM.

And the GI50 (LOX IMVI melanoma)?
The GI50 was over 100 µM.

And the TGI (LOX IMVI melanoma)?
Its TGI is over 100 µM.

And the GI50 (M14 melanoma)?
The GI50 was over 100 µM.

And the TGI (M14 melanoma)?
The TGI was over 100 µM.

And the GI50 (MALME-3M melanoma)?
The GI50 was over 100 µM.

What about the TGI (MALME-3M melanoma) of the same compound?
Its TGI is over 100 µM.

What about the GI50 (MDA-MB-231 breast) of the same compound?
The GI50 was 13.6 µM.

What about the TGI (MDA-MB-231 breast) of the same compound?
Its TGI is over 100 µM.

And the GI50 (MDA-MB-435)?
The GI50 was over 100 µM.

And the TGI (MDA-MB-435)?
Its TGI is over 100 µM.

And the GI50 (MOLT-4 leukemia)?
Its GI50 is over 25.3 µM.

And the TGI (MOLT-4 leukemia)?
Its TGI is over 100 µM.

And the GI50 (NCI-H226 lung)?
The GI50 was over 100 µM.

And the TGI (NCI-H226 lung)?
Its TGI is over 100 µM.

What about the GI50 (NCI-H23 lung) of the same compound?
The GI50 was over 100 µM.

What about the TGI (NCI-H23 lung) of the same compound?
Its TGI is over 100 µM.

What about the GI50 (NCI/ADR-RES ovarian) of the same compound?
Its GI50 is over 100 µM.

What about the TGI (NCI/ADR-RES ovarian) of the same compound?
Its TGI is over 100 µM.

What about the GI50 (OVCAR-3 ovarian) of the same compound?
The GI50 was over 100 µM.

And the TGI (OVCAR-3 ovarian)?
Its TGI is over 100 µM.

What about the GI50 (OVCAR-5 ovarian) of the same compound?
The GI50 was over 100 µM.

And the TGI (OVCAR-5 ovarian)?
Its TGI is over 100 µM.

And the GI50 (OVCAR-8 ovarian)?
The GI50 was over 100 µM.

And the TGI (OVCAR-8 ovarian)?
Its TGI is over 100 µM.

What about the GI50 (PC-3 prostate) of the same compound?
Its GI50 is over 27.2 µM.

What about the TGI (PC-3 prostate) of the same compound?
The TGI was over 100 µM.

And the GI50 (RPMI-8226 leukemia)?
Its GI50 is over 100 µM.

And the TGI (RPMI-8226 leukemia)?
Its TGI is over 100 µM.

And the GI50 (RXF 393 renal)?
Its GI50 is over 100 µM.

What about the TGI (RXF 393 renal) of the same compound?
Its TGI is over 100 µM.

What about the GI50 (SF-268 CNS) of the same compound?
The GI50 was over 100 µM.

What about the TGI (SF-268 CNS) of the same compound?
The TGI was over 100 µM.

What about the GI50 (SF-295 CNS) of the same compound?
The GI50 was over 100 µM.

And the TGI (SF-295 CNS)?
Its TGI is over 100 µM.

What about the GI50 (SF-539 CNS) of the same compound?
The GI50 was over 100 µM.

What about the TGI (SF-539 CNS) of the same compound?
Its TGI is over 100 µM.

What about the GI50 (SK-MEL-2 melanoma) of the same compound?
The GI50 was over 92.8 µM.

And the TGI (SK-MEL-2 melanoma)?
Its TGI is over 100 µM.

What about the GI50 (SK-MEL-28 melanoma) of the same compound?
The GI50 was over 100 µM.

And the TGI (SK-MEL-28 melanoma)?
Its TGI is over 100 µM.

What about the GI50 (SK-MEL-5 melanoma) of the same compound?
The GI50 was 56.9 µM.

And the TGI (SK-MEL-5 melanoma)?
The TGI was over 100 µM.

What about the GI50 (SK-OV-3 ovarian) of the same compound?
The GI50 was over 100 µM.

What about the TGI (SK-OV-3 ovarian) of the same compound?
Its TGI is over 100 µM.

And the GI50 (SN12C renal)?
The GI50 was over 100 µM.

What about the TGI (SN12C renal) of the same compound?
The TGI was over 100 µM.

And the GI50 (SNB-19 CNS)?
The GI50 was 57.9 µM.

What about the TGI (SNB-19 CNS) of the same compound?
Its TGI is over 100 µM.

And the GI50 (SNB-75 CNS)?
Its GI50 is 53 µM.

What about the TGI (SNB-75 CNS) of the same compound?
The TGI was over 100 µM.

What about the GI50 (SR leukemia) of the same compound?
The GI50 was 19.2 µM.

What about the TGI (SR leukemia) of the same compound?
The TGI was over 57.3 µM.

What about the GI50 (SW-620 colon) of the same compound?
Its GI50 is over 100 µM.

What about the TGI (SW-620 colon) of the same compound?
Its TGI is over 100 µM.

What about the GI50 (T-47D breast) of the same compound?
The GI50 was over 100 µM.

What about the TGI (T-47D breast) of the same compound?
Its TGI is over 100 µM.

And the GI50 (TK-10 renal)?
The GI50 was 46.5 µM.

And the TGI (TK-10 renal)?
Its TGI is over 100 µM.

What about the GI50 (U251 CNS) of the same compound?
The GI50 was 4.29 µM.

And the TGI (U251 CNS)?
The TGI was over 100 µM.

And the GI50 (UACC-257 melanoma)?
The GI50 was over 100 µM.

And the TGI (UACC-257 melanoma)?
The TGI was over 100 µM.

What about the GI50 (UACC-62 melanoma) of the same compound?
The GI50 was over 100 µM.

And the TGI (UACC-62 melanoma)?
The TGI was over 100 µM.

And the GI50 (UO-31 renal)?
The GI50 was over 100 µM.

And the TGI (UO-31 renal)?
Its TGI is over 100 µM.
